Laboratory results taken from patent US8604034B2, “Substituted imidazo[1,2-α]pyrrolo[1,2-d]pyrazines for treating respiratory syncytial virus (RSV) infections” (Biota Scientific Management Pty Ltd., priority 2010, dated 2013).
Read-outs that look alike come from different tables or passages of the source.

Test system: RSV A2
Experiment: RSV antiviral cytopathic effect (CPE) assay
Type: cell-based
Conditions: human respiratory syncytial virus, HEp-2, 120 h, HEp2 cells infected with RSV A2 (moi ~0.01), 5 days, MTT readout
Procedure: Compounds of the invention were tested for their antiviral activity against respiratory syncytial virus. Cytopathic effect (CPE) assays were performed essentially as described in the literature (see for example Watanabe et al, 1994, J. Virological Methods, 48:257). Serial dilutions of the test compounds were made in 96 well plates. HEp2 cells (1.0×10^4 cells/well) were infected with RSV at a low multiplicity of infection (e.g. RSV A2 at an moi of ˜0.01) and added to plates to assess antiviral activity. Uninfected HEp2 cells were used to assess compound cytotoxicity. Assays were incubated for 5 days at 37° C. in a 5% CO2 atmosphere. The extent of CPE was determined via metabolism of the vital dye 3-(4,5-dimethylthiaxol-2-yl)-2,5-diphenyltetrazolium bromide (MTT). MTT (1 mg/ml) was added to each well and plates incubated for 2 hours incubation at 37° C. Wells were aspirated, iso-propanol (200 μL) was added and absorbance values read at 540/650 nm. Compound concentrations that inhibited CPE by 50% (EC50) and developed cytotoxicity (CC50) were calculated using non-linear regression analysis.
Representative mean EC50 values obtained are also provided. In the inventors' experience, replicate EC50 values usually fall within three standard deviations of the mean.

[1] = read-out: Activity Range (RSV A2 EC50)
[2] = mean EC50, read-out: RSV A2 EC50

EC50 [1] [nM]	EC50 [2] [nM]	Structure (SMILES)
< 49	21	Cc1nocc1C(=O)N1CCN2C(=O)c3cccn3CC12c1ccc(F)cc1 (centres unmarked) [Compound 2]
100 to 499	140	Cc1ocnc1C(=O)N1CCN2C(=O)c3cccn3CC12c1ccc(Cl)cc1 (centres unmarked) [Compound 3]
< 49	34	Cc1nocc1C(=O)N1CCN2C(=O)c3cccn3CC12c1cccc(F)c1 (centres unmarked) [Compound 5]
50 to 99	52	COc1ccc(C23Cn4cccc4C(=O)N2CCN3C(=O)c2conc2C)cc1 (centres unmarked) [Compound 6]
500 to 10000	1800	COc1ccc(C23Cn4cccc4C(=O)N2CCN3C(=O)c2cocn2)cc1 (centres unmarked) [Compound 8]
100 to 499	170	Cc1nocc1C(=O)N1CCN2C(=O)c3nccn3CC12c1ccc(Cl)cc1 (centres unmarked) [Compound 11]
500 to 10000	4100	O=C1c2cccn2CC2(c3ccc(Cl)cc3)N1CCN2C(=O)C1CC1 (centres unmarked) [Compound 18]
500 to 10000	6700	CCC12Cn3cccc3C(=O)N1CCN2C(=O)c1conc1C (centres unmarked) [Compound 20]
< 49	2.2	Cc1nocc1C(=O)N1CCN2C(=O)c3ccc(Cl)n3CC12c1ccc(Cl)cc1 (centres unmarked) [Compound 22, 8-chloro-10a-(4-chlorophenyl)-1-[(3-methyl-1,2-oxazol-4-yl)carbonyl]-2,3,10,10a-tetrahydro-1H,5H-imidazo[1,2-a]pyrrolo[1,2-d]pyrazin-5-one]
< 49	8	COc1ccc(C23Cn4c(Cl)ccc4C(=O)N2CCN3C(=O)c2conc2C)cc1 (centres unmarked) [Compound 23]
> 10000	–	CC(=O)c1cc2n(c1)CC1(c3ccc(Cl)cc3)N(C(=O)c3cnoc3C)CCN1C2=O (centres unmarked) [Compound 24, 7-acetyl-10a-(4-chlorophenyl)-1-[(5-methyl-1,2-oxazol-4-yl)carbonyl]-2,3,10,10a-tetrahydro-1H,5H-imidazo[1,2-a]pyrrolo[1,2-d]pyrazin-5-one]
500 to 10000	1000	Cc1nocc1C(=O)N1CCN2C(=O)c3cc(CO)cn3CC12c1ccc(Cl)cc1 (centres unmarked) [Compound 29]
< 49	7.6	Cc1nocc1C(=O)N1CCN2C(=O)c3cc(-c4cnn(C)c4)cn3CC12c1ccc(Cl)cc1 (centres unmarked) [Compound 31]
500 to 10000	690	Cc1oncc1C(=O)N1CCN2C(=O)c3ccc(-c4ccncc4)n3CC12c1ccc(Cl)cc1 (centres unmarked) [Compound 32, 10a-(4-chlorophenyl)-1-[(5-methyl-1,2-oxazol-4-yl)carbonyl]-8-(pyridin-4-yl)-2,3,10,10a-tetrahydro-1H,5H-imidazo[1,2-a]pyrrolo[1,2-d]pyrazin-5-one]
100 to 499	380	COc1ccc(C23Cn4c(ccc4-c4cnn(C)c4)C(=O)N2CCN3C(=O)c2conc2C)cc1 (centres unmarked) [Compound 34]
100 to 499	480	Cc1nocc1C(=O)N1CCN2C(=O)c3cccn3CC12c1ccc(N2CCCC2)cc1 (centres unmarked) [Compound 36, 1-[(3-methyl-1,2-oxazol-4-yl)carbonyl]-10a-[4-(pyrrolidin-1-yl)phenyl]-2,3,10,10a-tetrahydro-1H,5H-imidazo[1,2-a]pyrrolo[1,2-d]pyrazin-5-one]
> 10000	–	Cc1cc2n(n1)CC1(c3ccc(Cl)cc3)N(C(=O)c3ccc(F)nc3)CCN1C2=O (centres unmarked) [Compound 45]
> 10000	–	Cc1cc2n(n1)CC1(c3ccc(Cl)cc3)NCCN1C2=O (centres unmarked) [Compound 47]

Continued, compound first:

Structure (SMILES)	EC50 [1] [nM]	EC50 [2] [nM]
Cc1nocc1C(=O)N1CCN2C(=O)c3cccn3CC12c1ccc(OC(F)F)cc1 (centres unmarked) [Compound 1, 10a-[4-(difluoromethoxy)phenyl]-1-[(3-methyl-1,2-oxazol-4-yl)carbonyl]-2,3,10,10a-tetrahydro-1H,5H-imidazo[1,2-a]pyrrolo[1,2-d]pyrazin-5-one]	50 to 99	89
Cc1nocc1C(=O)N1CCN2C(=O)c3cccn3CC12c1ccc(Cl)cc1 (centres unmarked) [Compound 4]	< 49	19
O=C(c1cocn1)N1CCN2C(=O)c3cccn3CC12c1ccc(F)cc1 (centres unmarked) [Compound 7]	100 to 499	410
Cc1ccc(C23Cn4cccc4C(=O)N2CCN3C(=O)c2conc2C)cc1 (centres unmarked) [Compound 9]	< 49	13
CCN(CC)S(=O)(=O)c1ccc(C23Cn4cccc4C(=O)N2CCN3C(=O)c2conc2C)cc1 (centres unmarked) [Compound 10]	> 10000	–
Cc1nocc1C(=O)N1CCN2C(=O)c3c(C)ncn3CC12c1ccc(Cl)cc1 (centres unmarked) [Compound 12]	500 to 10000	7500
Cc1nocc1C(=O)N1CCN2C(=O)c3cncn3CC12c1ccc(Cl)cc1 (centres unmarked) [Compound 13]	500 to 10000	1200
Cc1ccc(C23Cn4cccc4C(=O)N2CCN3C(=O)c2cnoc2C)cc1F (centres unmarked) [Compound 14]	50 to 99	94
O=C(c1ccoc1)N1CCN2C(=O)c3cccn3CC12c1ccc(Cl)cc1 (centres unmarked) [Compound 15]	50 to 99	56
O=C(c1ccon1)N1CCN2C(=O)c3cccn3CC12c1ccc(Cl)cc1 (centres unmarked) [Compound 16]	500 to 10000	980
Cn1cc(C(=O)N2CCN3C(=O)c4cccn4CC23c2ccc(Cl)cc2)c(C(F)(F)F)n1 (centres unmarked) [Compound 17]	500 to 10000	860
Cc1nocc1C(=O)N1CCN2C(=O)c3cccn3CC12C1CCCCC1 (centres unmarked) [Compound 19]	50 to 99	65
Cc1nocc1C(=O)N1CCN2C(=O)c3cccn3CC12C(C)(C)C (centres unmarked) [Compound 21]	> 10000	–
Cc1nocc1C(=O)N1CCN2C(=O)c3ccc(CN4CCOCC4)n3CC12c1ccc(Cl)cc1 (centres unmarked) [Compound 25, 10a-(4-chlorophenyl)-1-[(3-methyl-1,2-oxazol-4-yl)carbonyl]-8-(morpholin-4-ylmethyl)-2,3,10,10a-tetrahydro-1H,5H-imidazo[1,2-a]pyrrolo[1,2-d]pyrazin-5-one]	50 to 99	65
Cc1nocc1C(=O)N1CCN2C(=O)c3cc(CN4CCOCC4)cn3CC12c1ccc(Cl)cc1 (centres unmarked) [Compound 26]	> 10000	–
Cc1nocc1C(=O)N1CCN2C(=O)c3cc(CN(C)C)cn3CC12c1ccc(Cl)cc1 (centres unmarked) [Compound 27]	500 to 10000	9500
Cc1nocc1C(=O)N1CCN2C(=O)c3ccc(CO)n3CC12c1ccc(Cl)cc1 (centres unmarked) [Compound 28]	50 to 99	88
Cc1nocc1C(=O)N1CCN2C(=O)c3cc(-c4cccnc4)cn3CC12c1ccc(Cl)cc1 (centres unmarked) [Compound 30, 10a-(4-chlorophenyl)-1-[(3-methyl-1,2-oxazol-4-yl)carbonyl]-7-(pyridin-3-yl)-2,3,10,10a-tetrahydro-1H,5H-imidazo[1,2-a]pyrrolo[1,2-d]pyrazin-5-one]	< 49	36
Cc1nocc1C(=O)N1CCN2C(=O)c3ccc(-c4cccnc4)n3CC12c1ccc(Cl)cc1 (centres unmarked) [Compound 33]	500 to 10000	3100
Cc1nocc1C(=O)N1CCN2C(=O)c3cccn3CC12c1ccccc1 (centres unmarked) [Compound 35, 1-[(3-methyl-1,2-oxazol-4-yl)carbonyl]-10a-phenyl-2,3,10,10a-tetrahydro-1H,5H-imidazo[1,2-a]pyrrolo[1,2-d]pyrazin-5-one]	50 to 99	54
Cc1nocc1C(=O)N1CCN2C(=O)c3cccn3CC12c1ccc(C#N)cc1 (centres unmarked) [Compound 37, 4-{1-[(3-methyl-1,2-oxazol-4-yl)carbonyl]-5-oxo-2,3-dihydro-1H,5H-imidazo[1,2-a]pyrrolo[1,2-d]pyrazin-10a(10H)-yl}benzonitrile]	100 to 499	120
Cc1nocc1C(=O)N1CCN2C(=O)c3cc(C(=O)N(C)C)cn3CC12c1ccc(Cl)cc1 (centres unmarked) [Compound 38, 10a-(4-chlorophenyl)-N,N-dimethyl-1-[(3-methyl-1,2-oxazol-4-yl)carbonyl]-5-oxo-2,3,10,10a-tetrahydro-1H,5H-imidazo[1,2-a]pyrrolo[1,2-d]pyrazine-7-carboxamide]	> 10000	–
Cc1nocc1C(=O)N1CCN2C(=O)c3cccc(=O)n3CC12c1ccc(Cl)cc1 (centres unmarked) [Compound 39, 11a-(4-chlorophenyl)-1-[(3-methyl-1,2-oxazol-4-yl)carbonyl]-2,3,11,11a-tetrahydro-1H-imidazo[1,2-a]pyrido[1,2-d]pyrazine-5,9-dione]	< 49	15
Cc1oncc1C(=O)N1CCN2C(=O)c3cccc(=O)n3CC12c1ccc(Cl)cc1 (centres unmarked) [Compound 40]	100 to 499	210
Cc1cc2n(n1)CC1(c3ccc(Cl)cc3)N(C(=O)NCCc3ccccc3)CCN1C2=O (centres unmarked) [Compound 41, 10a-(4-chlorophenyl)-7-methyl-5-oxo-N-(2-phenylethyl)-2,3,10,10a-tetrahydro-1H,5H-imidazo[1,2-a]pyrazolo[1,5-d]pyrazine-1-carboxamide]	> 10000	–
Cc1cc2n(n1)CC1(c3ccc(Cl)cc3)N(C(=O)c3ccc(F)cc3)CCN1C2=O (centres unmarked) [Compound 42]	> 10000	–
Cc1cc2n(n1)CC1(c3ccc(Cl)cc3)N(C(=O)c3ccoc3)CCN1C2=O (centres unmarked) [Compound 43]	500 to 10000	3400
Cc1cc2n(n1)CC1(c3ccc(Cl)cc3)N(C(=O)c3cccnc3)CCN1C2=O (centres unmarked) [Compound 44]	> 10000	–
Cc1cc2n(n1)CC1(c3ccc(Cl)cc3)N(C(=O)NCc3ccccc3)CCN1C2=O (centres unmarked) [Compound 46]	> 10000	–
